Experimental data as given in US20120237524A1, “MET INHIBITORS FOR ENHANCING RADIOTHERAPY EFFICACY” (priority 2011, published 2012).

Experiments:
MDA-MB-4355 spheroids = assay: Branching morphogenesis assay; type: cell-based, human; details: HGF 5 nM alone (suboptimal concentration), non-irradiated MDA-MB-4355
Procedure: a, Basement membrane invasion by irradiated MDA-MB-231 or U-251 (10 Gy; ctrl, control). Micrographs of transwell filters (10×). b, Aberrant Met-induced branching morphogenesis in irradiated MDA-MB-4355 (10 Gy; ctrl, control), cultured with or without (−) the indicated HGF concentrations. Scale bar: 100 μm.
MDA-MB-4355 spheroids were preformed by single-cell resuspension in 240 mg/ml methylcellulose (Sigma) and culture in nonadherent 96-well plates (Greiner) for 24 h. Spheroids were transferred into a matrix containing 1.3 mg/ml type I collagen from rat tail (BD Biosciences), 10% FBS, and 240 mg/ml methylcellulose. After 24 h, cells were irradiated and/or cultured in the presence of HGF for 7 days. HGF was obtained as a baculovirus recombinant protein in SF9 cells. The conditioned medium from uninfected cells was used as negative control. Images are representative of results obtained in three independent experiments.

Met = biological target: T1, Met (Homo sapiens, UniProt P08581); assay: Met phosphorylation (immunoprecipitation, anti-phospho-Tyr western blot) in MDA-MB-231; type: cell-based; details: MDA-MB-231, HGF 50 ng/ml (non-saturating)
T1 construct: Met phosphorylation in MDA-MB-231 treated with HGF (50 nM) and/or IR (10 Gy); endogenous in cells; host or cells: MDA-MB-231 (ATCC)

ATM kinase = biological target: T2, ATM kinase (Homo sapiens, UniProt Q13315); assay: ATM kinase inhibition in irradiated cells, western blot time course; type: cell-based; details: MDA-MB-435S or MDA-MB-231, 10 μM, time course after irradiation
T2 construct: endogenous in cells; host or cells: MDA-MB-435S, MDA-MB-231 (ATCC)
Procedure: Met protein expression, Chk2 phosphorylation (p-Chk2) and p65/RelA nuclear translocation in MDA-MB-435S treated with the ATM kinase inhibitor CGK733, and extracted at the indicated time-points after irradiation. ctrl, non-irradiated cells at time zero.
Cell lines (A549, MDA-MB-231, LoVo, MDAMB-4355, U-87MG, U-251, PC3, SF295, DLD1, SK-N-SH) were from ATCC. For ATM kinase inhibition, cells were pre-treated for 4 h before irradiation and then kept in the presence of CGK733 (10 μM in DMSO). siRNAs targeting RELA (ON-TARGET plus SMART pool L-003533-00 Human RELA, NM 021975, Dharmacon, 100 nM), or control siRNAs (ON-TARGET plus SMART pool, siCONTROL Non Targeting siRNA, Dharmacon) were transiently transfected.
Protein expression was investigated in irradiated confluent, serum-starved cells. For fractionation in cytoplasmic and nuclear portions, cells were washed and incubated on ice for 10 min in “buffer A” (10 mM HEPES pH 7.9, 10 mM KCl, 0.1 mM EDTA, 0.5% NP-40, 1 mM dithiothreitol, 1 mM phenylmethylsulfonyl fluoride and a cocktail of protease inhibitors). Supernatants, containing the cytoplasmic extracts, were separated by centrifugation. Pellets were resuspended in “buffer B” (20 mM HEPES pH 7.9, 400 mM KCl, 1 mM EDTA, 1 mM dithiothreitol, 10% glycerol, 1 mM phenylmethylsulfonyl fluoride and a cocktail of protease inhibitors) and incubated at 4° C. for 1 h with vigorous mixing. The resulting nuclear lysates were clarified by high-speed centrifugation. Equal amount of proteins were resolved by SDS-PAGE and analysed by western blot with the following primary antibodies: mouse anti-human Met (DL21 disclosed in Prat et al., Int. J. Cancer 49, 323-328 (1991)), mouse anti-p65/RelA and mouse anti-HIF-1α (BD Biosciences), rabbit anti-phospho-Ser276 and rabbit anticaspase-3 (Cell Signaling), rabbit anti-phospho-Chk2 (T68, R&D Systems). Goat anti-actin (C-11; Santa Cruz Biotechnology) and mouse anti-lamin B (Calbiochem) were used for control of equal cytoplasmic or nuclear protein loading, respectively. […] Densitometric analysis was performed with Quantity One 1-D (Bio-Rad Laboratories). […]

U-251 = assay: Cell viability assay with DN30 Fab, with irradiation (10 Gy); type: cell-based, human
Procedure: Viability of U-251 irradiated with 10 Gy and/or cultured in the presence of the Fab fragment of the DN30 anti-Met antibody, for 48 h (vehicle: non-irradiated cells). Columns: mean of triplicate analyses of three independent experiments±s.e.m. […] Columns: percentage of cells generating clones (mean of triplicate analyses of two independent experiments±s.e.m., * p<0.05, n=6, paired t-test).
10^3 cells were seeded in 96-well plates and grown for 24 h. Culture medium was replaced with medium containing 1% FBS and DN30 Fab (28 μg/ml) or the vehicle alone (PBS). After 24 h, cells were irradiated (10 Gy). Cell viability was assessed as above.

T2 sequence (Q13315 whole entry): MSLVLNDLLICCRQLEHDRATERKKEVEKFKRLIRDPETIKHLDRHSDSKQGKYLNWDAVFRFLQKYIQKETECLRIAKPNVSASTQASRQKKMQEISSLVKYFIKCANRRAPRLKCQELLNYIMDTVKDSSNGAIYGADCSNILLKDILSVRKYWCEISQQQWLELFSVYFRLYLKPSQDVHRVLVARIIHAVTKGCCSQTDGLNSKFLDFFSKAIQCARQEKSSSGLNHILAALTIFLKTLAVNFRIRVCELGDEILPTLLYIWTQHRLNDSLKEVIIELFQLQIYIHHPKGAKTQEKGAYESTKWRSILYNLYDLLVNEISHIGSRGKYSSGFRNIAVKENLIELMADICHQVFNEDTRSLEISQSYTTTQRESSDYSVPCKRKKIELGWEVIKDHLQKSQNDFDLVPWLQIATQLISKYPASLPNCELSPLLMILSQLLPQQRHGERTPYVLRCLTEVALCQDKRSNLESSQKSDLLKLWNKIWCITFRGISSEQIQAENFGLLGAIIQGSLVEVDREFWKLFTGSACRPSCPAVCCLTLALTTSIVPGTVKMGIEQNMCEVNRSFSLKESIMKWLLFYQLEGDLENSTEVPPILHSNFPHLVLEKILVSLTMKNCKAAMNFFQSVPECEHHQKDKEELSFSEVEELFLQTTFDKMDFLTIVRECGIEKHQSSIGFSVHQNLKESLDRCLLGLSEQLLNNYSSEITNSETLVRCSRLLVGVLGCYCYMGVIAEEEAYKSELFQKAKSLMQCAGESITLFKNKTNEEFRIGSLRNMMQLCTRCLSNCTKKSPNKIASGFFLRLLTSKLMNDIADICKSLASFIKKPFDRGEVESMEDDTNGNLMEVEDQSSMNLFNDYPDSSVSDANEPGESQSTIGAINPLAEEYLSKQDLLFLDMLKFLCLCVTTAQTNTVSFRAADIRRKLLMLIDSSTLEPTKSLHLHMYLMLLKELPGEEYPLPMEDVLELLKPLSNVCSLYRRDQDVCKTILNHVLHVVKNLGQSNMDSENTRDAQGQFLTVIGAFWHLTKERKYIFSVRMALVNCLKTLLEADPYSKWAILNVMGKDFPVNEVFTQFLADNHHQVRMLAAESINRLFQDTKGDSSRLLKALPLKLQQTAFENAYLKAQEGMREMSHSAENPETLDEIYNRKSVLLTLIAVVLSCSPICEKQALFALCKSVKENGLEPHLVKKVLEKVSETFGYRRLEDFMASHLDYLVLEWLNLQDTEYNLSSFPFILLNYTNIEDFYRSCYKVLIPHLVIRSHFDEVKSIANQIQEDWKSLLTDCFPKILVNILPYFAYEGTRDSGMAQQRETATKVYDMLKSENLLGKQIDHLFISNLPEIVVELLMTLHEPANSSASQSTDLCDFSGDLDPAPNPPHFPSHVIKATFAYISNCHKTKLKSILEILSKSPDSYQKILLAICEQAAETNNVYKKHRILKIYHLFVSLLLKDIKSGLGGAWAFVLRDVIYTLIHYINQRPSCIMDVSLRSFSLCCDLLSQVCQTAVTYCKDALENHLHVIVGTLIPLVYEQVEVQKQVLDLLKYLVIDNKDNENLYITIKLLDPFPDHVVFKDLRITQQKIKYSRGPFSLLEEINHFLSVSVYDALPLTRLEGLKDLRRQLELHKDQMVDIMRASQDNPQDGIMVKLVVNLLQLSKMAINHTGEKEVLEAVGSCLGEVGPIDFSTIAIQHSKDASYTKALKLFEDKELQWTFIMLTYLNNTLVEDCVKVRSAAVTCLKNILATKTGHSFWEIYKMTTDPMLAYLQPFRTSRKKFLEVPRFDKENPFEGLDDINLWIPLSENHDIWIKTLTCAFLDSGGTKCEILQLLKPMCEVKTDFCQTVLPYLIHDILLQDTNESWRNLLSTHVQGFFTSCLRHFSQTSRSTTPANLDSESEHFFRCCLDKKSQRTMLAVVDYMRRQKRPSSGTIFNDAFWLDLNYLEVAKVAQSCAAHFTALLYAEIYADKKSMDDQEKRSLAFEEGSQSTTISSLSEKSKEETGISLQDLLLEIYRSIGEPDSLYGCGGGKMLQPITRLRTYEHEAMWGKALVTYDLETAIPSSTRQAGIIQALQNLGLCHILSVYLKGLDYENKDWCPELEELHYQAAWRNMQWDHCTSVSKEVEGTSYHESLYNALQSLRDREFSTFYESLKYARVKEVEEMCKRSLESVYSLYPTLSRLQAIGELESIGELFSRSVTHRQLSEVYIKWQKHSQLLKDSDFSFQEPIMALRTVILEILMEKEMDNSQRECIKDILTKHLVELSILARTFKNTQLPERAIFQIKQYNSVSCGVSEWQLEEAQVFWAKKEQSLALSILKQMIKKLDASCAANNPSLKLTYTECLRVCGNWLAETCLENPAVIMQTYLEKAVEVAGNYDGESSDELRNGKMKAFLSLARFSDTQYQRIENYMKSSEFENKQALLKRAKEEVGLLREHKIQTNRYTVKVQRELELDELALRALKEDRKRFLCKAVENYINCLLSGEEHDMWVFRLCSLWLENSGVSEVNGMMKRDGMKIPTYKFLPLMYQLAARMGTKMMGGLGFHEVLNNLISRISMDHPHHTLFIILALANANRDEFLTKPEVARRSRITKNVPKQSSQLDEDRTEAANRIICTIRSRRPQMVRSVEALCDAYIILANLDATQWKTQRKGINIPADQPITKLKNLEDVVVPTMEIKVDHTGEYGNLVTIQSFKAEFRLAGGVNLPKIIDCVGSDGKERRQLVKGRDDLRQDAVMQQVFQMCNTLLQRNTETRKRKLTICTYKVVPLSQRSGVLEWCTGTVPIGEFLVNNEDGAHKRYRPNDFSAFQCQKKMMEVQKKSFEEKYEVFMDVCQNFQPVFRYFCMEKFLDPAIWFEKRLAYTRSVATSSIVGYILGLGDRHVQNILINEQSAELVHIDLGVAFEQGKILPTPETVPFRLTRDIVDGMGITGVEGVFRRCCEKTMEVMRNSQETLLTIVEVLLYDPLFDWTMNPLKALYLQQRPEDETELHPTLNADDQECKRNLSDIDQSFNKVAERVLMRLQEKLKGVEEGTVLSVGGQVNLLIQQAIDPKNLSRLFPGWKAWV
T1 sequence (P08581 25-1390): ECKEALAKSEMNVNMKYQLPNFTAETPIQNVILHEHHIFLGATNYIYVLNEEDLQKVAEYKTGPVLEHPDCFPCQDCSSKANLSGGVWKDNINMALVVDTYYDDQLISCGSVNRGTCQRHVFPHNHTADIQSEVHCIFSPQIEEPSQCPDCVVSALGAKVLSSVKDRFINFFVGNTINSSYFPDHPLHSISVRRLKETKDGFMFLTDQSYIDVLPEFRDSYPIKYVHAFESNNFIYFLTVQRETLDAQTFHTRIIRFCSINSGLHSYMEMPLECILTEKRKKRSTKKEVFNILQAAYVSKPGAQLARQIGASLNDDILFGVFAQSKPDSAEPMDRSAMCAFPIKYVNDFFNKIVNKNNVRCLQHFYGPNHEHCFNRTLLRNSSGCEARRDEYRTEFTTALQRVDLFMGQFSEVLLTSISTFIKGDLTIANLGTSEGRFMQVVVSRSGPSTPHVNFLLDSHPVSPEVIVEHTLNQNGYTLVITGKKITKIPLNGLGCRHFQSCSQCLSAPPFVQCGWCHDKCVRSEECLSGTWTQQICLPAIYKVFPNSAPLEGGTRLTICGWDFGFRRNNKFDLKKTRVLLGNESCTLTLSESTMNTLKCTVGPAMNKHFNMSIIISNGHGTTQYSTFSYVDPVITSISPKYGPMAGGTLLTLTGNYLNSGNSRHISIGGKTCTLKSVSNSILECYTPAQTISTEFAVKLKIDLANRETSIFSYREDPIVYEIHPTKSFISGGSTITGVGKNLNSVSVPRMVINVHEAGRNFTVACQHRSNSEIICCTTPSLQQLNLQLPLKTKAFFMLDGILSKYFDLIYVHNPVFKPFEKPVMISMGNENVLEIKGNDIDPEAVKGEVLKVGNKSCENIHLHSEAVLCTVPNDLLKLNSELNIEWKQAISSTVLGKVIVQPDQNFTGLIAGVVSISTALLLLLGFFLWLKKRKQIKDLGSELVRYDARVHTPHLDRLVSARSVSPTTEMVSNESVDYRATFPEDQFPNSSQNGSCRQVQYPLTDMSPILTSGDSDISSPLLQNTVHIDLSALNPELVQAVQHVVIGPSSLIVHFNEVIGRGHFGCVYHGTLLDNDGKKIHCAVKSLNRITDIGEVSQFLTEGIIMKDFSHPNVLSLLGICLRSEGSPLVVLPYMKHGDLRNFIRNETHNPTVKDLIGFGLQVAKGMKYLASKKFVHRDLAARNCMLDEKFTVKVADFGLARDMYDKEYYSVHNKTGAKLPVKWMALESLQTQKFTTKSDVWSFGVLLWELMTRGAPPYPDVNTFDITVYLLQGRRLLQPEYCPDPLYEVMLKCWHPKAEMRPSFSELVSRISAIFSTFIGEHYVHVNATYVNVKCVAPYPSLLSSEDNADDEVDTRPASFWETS

Molecule: HGF: Hepatocyte Growth Factor, Met ligand, obtained as a baculovirus recombinant protein in SF9 cells
- induction of branching morphogenesis (MDA-MB-4355 spheroids): incapable of inducing branching morphogenesis
- time to peak of Met phosphorylation (Met): 30 min

Molecule: O=C(NC(NC(=S)Nc1ccc(F)c([N+](=O)[O-])c1)C(Cl)(Cl)Cl)C(c1ccccc1)c1ccccc1 (stereo not shown) [CGK733]
- IR-induced Met protein overexpression (ATM kinase): prevented
- IR-induced p65/RelA nuclear translocation (ATM kinase): prevented
- IR-induced phosphorylation of the specific ATM substrate Chk2 (ATM kinase): prevented

B1: Fab fragment of the DN30 anti-Met antibody: Fab fragment obtained through DN30 papain digestion and affinity purification; induces MET down-regulation (antibody)
heavy: QVQLQQPGTELVKPGASVKLSCKASGYTFTSYWIHWVKQRPGQGLEWIGEINPSSGRTNYNEKFKNKVTVTVDKSSTTAYMQLSNLTSEDSAVYYCASRGYWGQGTTLTVSSAKTTAPSVYPLAPVCGNTTGSSVTLGCLVKGYFPEPVTLTWNSGSLSSGVHTFPAVLQSDLYTLSSSVTVTSSTWPSQSITCNVAHPASSTKVDKKIEPRGPTIKPCPPCKCPAPNLLGGPSVFIFPPKIKDVLMISLSPIVTCVVVDVSEDDPDVQISWFVNNVEVHTAQTQTHREDYNSTLRVVSALPIQHQDWMSGKEFKCKVNNKDLPAPIERTISKPKGSVRAPQVYVLPPPEEEMTKKQVTLTCMVTDFMPEDIYVEWTNNGKTELNYKNTEPVLDSDGSYFMYSKLRVEKKNWVERNSYSCSVVHEGLHNHHTTKSFSRTPGK
light: DIVLTQSPASLAVSLGQRATISCKASQSVDYDGGSYMSWFQQRPGQPPKLLISAASNLESGIPARFSGSGSGTDFTLNIHPVEEEDVATYYCQQSYEDPLTFGAGTKLELKRADAAPTVSIFPPSSEQLTSGGASVVCFLNNFYPKDINVKWKIDGSERQNGVLNSWTDQDSKDSTYSMSSTLTLTKDEYERHNSYTCEATHKTSTSPIVKSFNRNEC
- Viability of U-251 (combination vs single treatments) (U-251; U-251 irradiated with 10 Gy and cultured with DN30 Fab for 48 h, p<0.05, n=9): viability significantly reduced with respect to either Fab-DN30 or 10 Gy alone
- cell viability decrease (U-251; irradiated cells kept in the presence of DN30 Fab (28 μg/ml), 10 Gy): up to 75%
